Tests used:
[1] = system: SARS-CoV-2 virus carrying the D614G S mutation; format: cell-based
[2] = system: SARS-CoV-2 virus carrying the D614G S mutation; format: cell-based; remark: listed apart in the source

NCCOCCOCCC(=O)NCC(=O)NC(CCC(=O)NC(Cc1c(Sc2ccc([N+](=O)[O-])cc2)[nH]c2ccccc12)C(=O)O)(CCC(=O)NC(Cc1c(Sc2ccc([N+](=O)[O-])cc2)[nH]c2ccccc12)C(=O)O)CCC(=O)NC(Cc1c(Sc2ccc([N+](=O)[O-])cc2)[nH]c2ccccc12)C(=O)O (stereo not shown) [Compound 63]
relative virus production vs mock-treatment, A549-ACE2 cells [1]: 0.035 ± 0.032
relative virus production vs mock-treatment, VeroE6-TMPRSS2 cells [2]: 0.059 ± 0.018

CCC(CC)COC(=O)[C@H](C)N[P@](=O)(OC[C@H]1O[C@@](C#N)(c2ccc3c(N)ncnn23)[C@H](O)[C@@H]1O)Oc1ccccc1 [remdesivir, reference compound]
relative virus production vs mock-treatment, A549-ACE2 cells [1]: 0.002 ± 0.002
relative virus production vs mock-treatment, VeroE6-TMPRSS2 cells [2]: 0.002 ± 0.001

From paper PMC10424185, “C-2 Thiophenyl Tryptophan Trimers Inhibit Cellular Entry of SARS-CoV-2 through Interaction with the Viral Spike (S) Protein” (Journal of Medicinal Chemistry, 2023)
